Assay results published in US11034678B2, “Diacylglycerol acyl transferase 2 inhibitors” (Pfizer Inc., priority 2016, dated 2021).

Assay: Metabolic clearance in HLM (hepatic clearance profile, Clint, app)
Type: in vitro ADME, human

Structure (SMILES): CCOc1cccnc1Oc1cncc(-c2ncc(C(=O)NC(C)(C)CO)cn2)c1 [Example 5, 2-(5-((3-Ethoxypyridin-2-yl)oxy)pyridin-3-yl)-N-(1-hydroxy-2-methylpropan-2-yl)pyrimidine-5-carboxamide]
- CIint, app in HLM: 18 µL/min/mg

Structure (SMILES): CCOc1ccccc1O[C@@H]1CCCN(c2ncc(C(=O)NC(C)(C)CO)cn2)C1 [WO2015140658 Example 19.21]
- CIint, app in HLM: 121 µL/min/mg
